In US11051515B2, “3-acyl-benzamides and their use as herbicides” (Bayer Aktiengesellschaft, priority 2017, dated 2021):

Experiments:
ABUTH [1] = assay: Pre-emergence action against ABUTH; assay type: in vivo, Abutilon theophrasti; conditions: pre-emergence, dosage 320 g/ha, scored visually after 3 weeks vs untreated controls
Text: (§1) Seeds of monocotyledonous and dicotyledonous weed plants and crop plants are laid out in sandy loam soil in wood-fiber pots and covered with soil. The compounds of the invention, formulated in the form of wettable powders (WP) or as emulsion concentrates (EC), are then applied to the surface of the covering soil in the form of an aqueous suspension or emulsion at a water application rate equating to […], with addition of 0.2% wetting agent. After the treatment, the pots are placed in a greenhouse and kept under good growth conditions for the trial plants. The damage to the test plants is scored visually after a test period of 3 weeks by comparison with untreated controls (herbicidal activity in percent (%): 100% activity=the plants have died, 0% activity=like control plants).

MATIN [2] = assay: Post-emergence action against MATIN; assay type: in vivo, Matricaria inodora; conditions: post-emergence, dosage 80 g/ha, visual assessment about 3 weeks after treatment vs untreated controls
Method: (§2) Seeds of monocotyledonous and dicotyledonous weed and crop plants are laid out in sandy loam soil in wood-fiber pots, covered with soil and cultivated in a greenhouse under good growth conditions. 2 to 3 weeks after sowing, the test plants are treated at the one-leaf stage. The compounds of the invention, formulated in the form of wettable powders (WP) or as emulsion concentrates (EC), are then sprayed onto the green parts of the plants in the form of an aqueous suspension or emulsion at a water application rate equating to […], with addition of 0.2% wetting agent. After the test plants have been left to stand in the greenhouse under optimal growth conditions for about 3 weeks, the action of the preparations is assessed visually in comparison to untreated controls (herbicidal action in percent (%): 100% activity=the plants have died, 0% activity=like control plants). […] At the same time, inventive compounds leave Gramineae crops such as barley, wheat, rye, millet/Sorghum, corn or rice virtually undamaged when applied post-emergence, even at high active ingredient dosages. In addition, some substances are also harmless to dicotyledonous crops such as soya, cotton, oilseed rape, sugar beet or potatoes. Some of the compounds according to the invention have high selectivity and are therefore suitable for controlling unwanted vegetation in agricultural crops by the post-emergence method. The data of Tables B18 to B34 below illustrate, in an exemplary manner, the […] herbicidal action of the compounds according to the invention, the herbicidal activity being stated in percent.

CYPES [3] = assay: Pre-emergence action against CYPES; assay type: in vivo, Cyperus esculentus; conditions: pre-emergence, dosage 320 g/ha, scored visually after 3 weeks vs untreated controls
Text: as §1

ALOMY = assay: Pre-emergence action against ALOMY; assay type: in vivo, Alopecurus myosuroides; conditions: dosage 320 g/ha, pre-emergence, scored visually after 3 weeks vs untreated controls, 100% = plants have died, 0% = like control plants
Text: as §1

SETVI [4] = assay: Post-emergence action against SETVI; assay type: in vivo, Setaria viridis; conditions: post-emergence, dosage 80 g/ha, visual assessment about 3 weeks after treatment vs untreated controls
Method: as §2

AMARE [5] = assay: Pre-emergence action against AMARE; assay type: in vivo, Amaranthus retroflexus; conditions: pre-emergence, dosage 320 g/ha, scored visually after 3 weeks vs untreated controls
Text: as §1

VERPE [6] = assay: Post-emergence action against VERPE; assay type: in vivo, Veronica persica; conditions: dosage 80 g/ha
Method: as §2

ECHCG [7] = assay: Pre-emergence action against ECHCG; assay type: in vivo, Echinochloa crus-galli; conditions: pre-emergence, dosage 320 g/ha, scored visually after 3 weeks vs untreated controls
Text: as §1

VERPE [8] = assay: Pre-emergence action against VERPE; assay type: in vivo, Veronica persica; conditions: Dosage 320 g/ha, pre-emergence
Text: as §1

CYPES [9] = assay: Post-emergence action against CYPES; assay type: in vivo, Cyperus esculentus; conditions: post-emergence, dosage 80 g/ha, visual assessment about 3 weeks after treatment vs untreated controls
Method: as §2

ABUTH [10] = assay: Post-emergence action against ABUTH; assay type: in vivo, Abutilon theophrasti; conditions: post-emergence, dosage 80 g/ha, visual assessment about 3 weeks after treatment vs untreated controls
Method: as §2

AMARE [11] = assay: Post-emergence action against AMARE; assay type: in vivo, Amaranthus retroflexus; conditions: post-emergence, dosage 80 g/ha, visual assessment about 3 weeks after treatment vs untreated controls
Method: as §2

SETVI [12] = assay: Pre-emergence action against SETVI; assay type: in vivo, Setaria viridis; conditions: pre-emergence, dosage 320 g/ha, scored visually after 3 weeks vs untreated controls
Text: as §1

VIOTR [13] = assay: Pre-emergence action against VIOTR; assay type: in vivo, Viola tricolor; conditions: Dosage 320 g/ha, pre-emergence
Text: as §1

ECHCG [14] = assay: Post-emergence action against ECHCG; assay type: in vivo, Echinochloa crus-galli; conditions: post-emergence, dosage 80 g/ha, visual assessment about 3 weeks after treatment vs untreated controls
Method: as §2

STEME [15] = assay: Pre-emergence action against STEME; assay type: in vivo, Stellaria media; conditions: Dosage 320 g/ha, pre-emergence
Text: as §1

STEME [16] = assay: Post-emergence action against STEME; assay type: in vivo, Stellaria media; conditions: post-emergence, dosage 80 g/ha
Method: as §2

VIOTR [17] = assay: Post-emergence action against VIOTR; assay type: in vivo, Viola tricolor; conditions: post-emergence, dosage 80 g/ha
Method: as §2

MATIN [18] = assay: Pre-emergence action against MATIN; assay type: in vivo, Matricaria inodora; conditions: Dosage 320 g/ha, pre-emergence
Text: as §1

PHBPU [19] = assay: Post-emergence action against PHBPU; assay type: in vivo, Pharbitis purpurea; conditions: post-emergence, dosage 80 g/ha
Method: as §2

PHBPU [20] = assay: Pre-emergence action against PHBPU; assay type: in vivo, Pharbitis purpurea; conditions: Dosage 320 g/ha, pre-emergence
Text: as §1

CC(C)C(=O)c1c(Cl)ccc(C(=O)Nc2nnnn2C)c1Cl [1-280]
pest or weed control at 320 g/ha (ABUTH [1]; Abutilon theophrasti, 504 h, read-out: Pre-emergence action against ABUTH (herbicidal activity)): 90%
pest or weed control at 80 g/ha (MATIN [2]; Tripleurospermum inodorum, 504 h, read-out: Post-emergence action against MATIN (herbicidal action in percent)): 90%
pest or weed control at 320 g/ha (CYPES [3]; Cyperus esculentus, 504 h, read-out: Pre-emergence action against CYPES (herbicidal activity)): 100%
pest or weed control at 320 g/ha (ALOMY; Alopecurus myosuroides, 504 h, read-out: Pre-emergence action against ALOMY (herbicidal activity in percent)): 90%
pest or weed control at 80 g/ha (SETVI [4]; Setaria viridis, 504 h, read-out: Post-emergence action against SETVI (herbicidal action in percent)): 80%
pest or weed control at 320 g/ha (AMARE [5]; Amaranthus retroflexus, 504 h, read-out: Pre-emergence action against AMARE (herbicidal activity)): 100%
pest or weed control at 80 g/ha (VERPE [6]; Veronica persica, 504 h): 90%
pest or weed control at 320 g/ha (ECHCG [7]; Echinochloa crus-galli, 504 h, read-out: Pre-emergence action against ECHCG (herbicidal activity)): 100%
pest or weed control at 320 g/ha (VERPE [8]; Veronica persica, 504 h): 90%
pest or weed control at 80 g/ha (CYPES [9]; Cyperus esculentus, 504 h, read-out: Post-emergence action against CYPES (herbicidal action in percent)): 90%
pest or weed control at 80 g/ha (ABUTH [10]; Abutilon theophrasti, 504 h, read-out: Post-emergence action against ABUTH (herbicidal action in percent)): 80%
pest or weed control at 80 g/ha (AMARE [11]; Amaranthus retroflexus, 504 h, read-out: Post-emergence action against AMARE (herbicidal action in percent)): 90%
pest or weed control at 320 g/ha (SETVI [12]; Setaria viridis, 504 h, read-out: SETVI (Table B8, pre-emergence herbicidal activity)): 90%
pest or weed control at 320 g/ha (VIOTR [13]; Viola tricolor, 504 h): 100%
pest or weed control at 80 g/ha (ECHCG [14]; Echinochloa crus-galli, 504 h, read-out: Post-emergence action against ECHCG (herbicidal action in percent)): 90%
pest or weed control at 320 g/ha (STEME [15]; Stellaria media, 504 h): 90%
pest or weed control at 80 g/ha (STEME [16]; Stellaria media, 504 h): 100%
pest or weed control at 80 g/ha (VIOTR [17]; Viola tricolor, 504 h): 90%
pest or weed control at 320 g/ha (MATIN [18]; Tripleurospermum inodorum, 504 h): 100%
pest or weed control at 80 g/ha (PHBPU [19]; Ipomoea purpurea, 504 h): 80%

CCCn1nnnc1NC(=O)c1ccc(C(F)(F)F)c(C(C)=O)c1C [3-14]
Pre-emergence action against ABUTH (herbicidal activity) (ABUTH [1]): 100%
Post-emergence action against MATIN (herbicidal action in percent) (MATIN [2]): 100%
Pre-emergence action against CYPES (herbicidal activity) (CYPES [3]): 80%
Pre-emergence action against ALOMY (herbicidal activity in percent) (ALOMY): 90%
Post-emergence action against SETVI (herbicidal action in percent) (SETVI [4]): 100%
Pre-emergence action against AMARE (herbicidal activity) (AMARE [5]): 100%
Post-emergence action against VERPE (VERPE [6]): 80
Pre-emergence action against ECHCG (herbicidal activity) (ECHCG [7]): 100%
Pre-emergence action against VERPE (VERPE [8]): 100%
Post-emergence action against CYPES (herbicidal action in percent) (CYPES [9]): 90%
Post-emergence action against ABUTH (herbicidal action in percent) (ABUTH [10]): 90%
Post-emergence action against AMARE (herbicidal action in percent) (AMARE [11]): 100%
SETVI (Table B8, pre-emergence herbicidal activity) (SETVI [12]): 100%
Pre-emergence action against PHBPU (PHBPU [20]): 90%
Pre-emergence action against VIOTR (VIOTR [13]): 100%
Post-emergence action against ECHCG (herbicidal action in percent) (ECHCG [14]): 100%
Pre-emergence action against STEME (STEME [15]): 100%
Post-emergence action against STEME (STEME [16]): 100
Post-emergence action against VIOTR (VIOTR [17]): 100
Pre-emergence action against MATIN (MATIN [18]): 100%
Post-emergence action against PHBPU (PHBPU [19]): 90

CCCn1nnnc1NC(=O)c1ccc(C)c(C(C)=O)c1Cl [3-134]
Pre-emergence action against ABUTH (herbicidal activity) (ABUTH [1]): 100%
Post-emergence action against MATIN (herbicidal action in percent) (MATIN [2]): 90%
Pre-emergence action against AMARE (herbicidal activity) (AMARE [5]): 90%
Post-emergence action against VERPE (VERPE [6]): 90
Pre-emergence action against ECHCG (herbicidal activity) (ECHCG [7]): 100%
Pre-emergence action against VERPE (VERPE [8]): 80%
Post-emergence action against CYPES (herbicidal action in percent) (CYPES [9]): 80%
Post-emergence action against ABUTH (herbicidal action in percent) (ABUTH [10]): 80%
Post-emergence action against AMARE (herbicidal action in percent) (AMARE [11]): 90%
Pre-emergence action against VIOTR (VIOTR [13]): 100%
Post-emergence action against ECHCG (herbicidal action in percent) (ECHCG [14]): 90%
Pre-emergence action against STEME (STEME [15]): 90%
Post-emergence action against STEME (STEME [16]): 100
Post-emergence action against VIOTR (VIOTR [17]): 90
Pre-emergence action against MATIN (MATIN [18]): 90%
Post-emergence action against PHBPU (PHBPU [19]): 90
